Key:
PANC13 = assay: CellTiter-Glo cell proliferation, patient-derived PANC13 tumorspheres; type: cell-based; settings: Homo sapiens, 72 h, three days treatment, read-out: IC50 category
Description: Effects of Compound-5B on proliferation and Id-1 expression in pancreatic cell lines. Compound-5B was next tested for inhibition of cell viability/proliferation in the three pancreatic cancer cell lines and two primary patient-derived cancer cell lines. Compound-5B inhibited cell viability/proliferation of all the cancer cell lines (Table 2). The culturing condition for the pancreatic cell lines was similar to those used in the breast cancer lines, with the exception of the primary patient-derived pancreatic cancer cell lines (PANC9 and PANC13). For determining inhibition of cell proliferation in patient-derived pancreatic cancer cells were cultured in a T75 ultra low attachment flasks with DMEM/F12 media supplemented with B27, penicillin/streptomycin (10,000 u/mL), 50 µg/mL human epidermal growth factor (hEGF), 50 μg/mL human fibroblast growth factor, and 5 μg/mL heparin. Cells were plated in a 384-well plate and incubated for three days to promote the formation of tumorspheres. Cells were then treated with Compound-5B for three days. Cell proliferation of pancreatic cells in the presence of drug was measured using the CellTiter-Glo luminescent Assay and IC50 values were calculated (Table 2). The IC50 and corresponding 95% confidence limits (CL) were calculated using non-linear regression analysis.

Kasumi −1 (leukemia) = assay: Cell proliferation, Kasumi-1 leukemia cells; type: cell-based; settings: Homo sapiens, read-out: IC50 category
Description: (§1) Effects of Compound-5B on cell proliferation in additional cancer cells: To determine whether Compound-5B would have broad based anticancer activity, we study whether Compound-5B would be effective at inhibiting cell proliferation in a variety of cancers overexpressing Id-1. The assay conditions used were identical to those presented for breast and pancreatic cancers. Indeed, Compound-5B was potent at inhibiting cell proliferation in blood cancer (leukemia), glioblastoma, prostate, and ovarian cancer.

U251 (glioblastoma) = assay: Cell proliferation, U251 glioblastoma cells; type: cell-based; settings: Homo sapiens, U-251, read-out: IC50 category
Description: as §1

Id-1 = Id-1 expression in MDA-MB231 cells (Western analysis); type: cell-based, human
Method: Quantitative Western analysis: Cells are cultured and treated in 6-well dishes. After the cells are washed twice with cold PBS, lysis buffer is added. The cells are then lysed by freezing for 10 min at −70° C. and then thawing at ambient temperature. The cell lysate is collected and the protein content is determined by using Bradford reagent. Equal amounts of protein are heated at 90° C. in Laemmli sample buffer which also included β-mercaptoethanol. The samples are then loaded onto a precast SDS-PAGE gel (Bio-Rad Laboratories, Hercules, CA). After which, proteins are then electroblotted onto an Immobilon membrane (Millipore, Billerica, MA) overnight at 2-4° C. The membrane is then blocked for 1 hour with 5% nonfat dry milk which included TBS+Tween. The membranes are then incubated with an anti-Id-1 primary antibody, and then an appropriate secondary antibody was used. Blots are incubated for 45 min and then washed 4 times with TBS+Tween for 15 min each. […]
Effects of Compound-5B on breast cancer cell proliferation, Id-1 expression and invasion in culture. […] The ability of the cells to migrate and invade in modified Boyden chambers was determined. The percentage relative invasion was calculated as the effect on treated cells/vehicle cells×100. […]

PANC-1 tumors = assay: PANC-1 subcutaneous xenograft in athymic nu/nu mice; type: in vivo
CYP450 isoforms = assay: CYP450 isoform inhibition; type: in vitro ADME; settings: 1 μM
Method: (§2) Evaluating ADME of Compound-5B in vitro. It is important to evaluate ADME first in culture as it allows for the selection of the best candidate for PK analysis in vivo. ADME analysis of Compound-5B was performed by Eurofins.

CYP2C8 = molecular target: T1, CYP2C8 (Homo sapiens, UniProt P10632); assay: CYP2C8 inhibition; type: in vitro ADME; settings: 10 μM
T1 construct: purchased Eurofins
Method: as §2

CYP2C9 = molecular target: T2, CYP2C9 (Homo sapiens, UniProt P11712); assay: CYP2C9 inhibition; type: in vitro ADME; settings: 10 μM
T2 construct: purchased Eurofins
Method: as §2

IV pharmacokinetics = type: in vivo; settings: 1 mpk
[1] = molecular target: T3, ADRB2 (β-Adrenergic receptor) (Homo sapiens, UniProt P07550); assay: SAFETY scan E/IC50 ELECT, ADRB2; type: biochemical; settings: read-out: inhibition against ADRB2 (mild)
T3 construct: purchased Eurofin's

[2] = molecular target: T4, DRD1 (Dopamine receptor D1) (Homo sapiens, UniProt P21728); assay: SAFETY scan E/IC50 ELECT, DRD1; type: biochemical; settings: read-out: inhibition against DRD1 (mild)
T4 construct: purchased Eurofin's

[3] = molecular target: T5, HRH2 (Histamine receptor) (Homo sapiens, UniProt P25021); assay: SAFETY scan E/IC50 ELECT, HRH2; type: biochemical; settings: read-out: inhibition against HRH2 (mild)
T5 construct: purchased Eurofin's
T5 sequence (P25021 whole entry): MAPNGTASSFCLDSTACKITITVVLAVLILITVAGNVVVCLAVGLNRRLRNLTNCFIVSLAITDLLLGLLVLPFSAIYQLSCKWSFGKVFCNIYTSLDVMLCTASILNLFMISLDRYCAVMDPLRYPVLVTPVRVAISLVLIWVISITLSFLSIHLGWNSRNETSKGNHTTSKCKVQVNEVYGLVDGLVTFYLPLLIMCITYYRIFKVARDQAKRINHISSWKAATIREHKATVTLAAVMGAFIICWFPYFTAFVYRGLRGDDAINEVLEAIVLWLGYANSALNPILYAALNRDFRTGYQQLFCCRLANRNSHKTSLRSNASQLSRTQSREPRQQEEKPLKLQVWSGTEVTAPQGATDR

T4 sequence (P21728 whole entry): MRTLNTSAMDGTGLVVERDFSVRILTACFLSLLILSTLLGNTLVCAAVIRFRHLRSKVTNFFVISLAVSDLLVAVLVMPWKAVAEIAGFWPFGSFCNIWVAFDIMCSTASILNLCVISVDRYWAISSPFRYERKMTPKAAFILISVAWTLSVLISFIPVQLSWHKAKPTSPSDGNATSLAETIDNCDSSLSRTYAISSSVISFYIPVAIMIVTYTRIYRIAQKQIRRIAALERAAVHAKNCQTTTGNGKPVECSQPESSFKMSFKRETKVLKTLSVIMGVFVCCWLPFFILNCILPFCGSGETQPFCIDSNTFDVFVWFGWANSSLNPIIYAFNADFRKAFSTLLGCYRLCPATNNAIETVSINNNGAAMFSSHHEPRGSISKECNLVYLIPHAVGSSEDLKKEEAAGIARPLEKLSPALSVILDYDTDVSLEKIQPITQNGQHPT
T2 sequence (P11712 whole entry): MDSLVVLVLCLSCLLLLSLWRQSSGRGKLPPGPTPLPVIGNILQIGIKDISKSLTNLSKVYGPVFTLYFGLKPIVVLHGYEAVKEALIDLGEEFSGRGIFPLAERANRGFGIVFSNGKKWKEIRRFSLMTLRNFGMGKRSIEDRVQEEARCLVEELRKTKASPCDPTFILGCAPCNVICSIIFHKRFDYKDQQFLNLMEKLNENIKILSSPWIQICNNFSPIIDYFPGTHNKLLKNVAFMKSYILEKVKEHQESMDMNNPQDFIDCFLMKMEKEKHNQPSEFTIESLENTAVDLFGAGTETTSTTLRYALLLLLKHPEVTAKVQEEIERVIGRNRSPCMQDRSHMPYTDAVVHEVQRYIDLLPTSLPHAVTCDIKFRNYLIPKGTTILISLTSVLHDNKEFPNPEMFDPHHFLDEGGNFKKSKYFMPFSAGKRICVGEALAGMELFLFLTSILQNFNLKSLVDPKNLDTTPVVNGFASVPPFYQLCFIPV
T3 sequence (P07550 whole entry): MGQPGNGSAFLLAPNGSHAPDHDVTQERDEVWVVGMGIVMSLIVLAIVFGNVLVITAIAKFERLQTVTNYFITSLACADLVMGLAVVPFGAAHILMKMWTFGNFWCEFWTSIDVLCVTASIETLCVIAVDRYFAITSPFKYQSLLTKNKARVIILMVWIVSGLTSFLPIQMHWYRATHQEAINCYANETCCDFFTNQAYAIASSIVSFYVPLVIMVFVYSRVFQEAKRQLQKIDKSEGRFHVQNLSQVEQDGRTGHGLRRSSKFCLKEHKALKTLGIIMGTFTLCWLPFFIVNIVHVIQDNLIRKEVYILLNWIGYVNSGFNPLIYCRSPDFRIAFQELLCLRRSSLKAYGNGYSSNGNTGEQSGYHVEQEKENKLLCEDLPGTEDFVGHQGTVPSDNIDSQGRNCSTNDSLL
T1 sequence (P10632 whole entry): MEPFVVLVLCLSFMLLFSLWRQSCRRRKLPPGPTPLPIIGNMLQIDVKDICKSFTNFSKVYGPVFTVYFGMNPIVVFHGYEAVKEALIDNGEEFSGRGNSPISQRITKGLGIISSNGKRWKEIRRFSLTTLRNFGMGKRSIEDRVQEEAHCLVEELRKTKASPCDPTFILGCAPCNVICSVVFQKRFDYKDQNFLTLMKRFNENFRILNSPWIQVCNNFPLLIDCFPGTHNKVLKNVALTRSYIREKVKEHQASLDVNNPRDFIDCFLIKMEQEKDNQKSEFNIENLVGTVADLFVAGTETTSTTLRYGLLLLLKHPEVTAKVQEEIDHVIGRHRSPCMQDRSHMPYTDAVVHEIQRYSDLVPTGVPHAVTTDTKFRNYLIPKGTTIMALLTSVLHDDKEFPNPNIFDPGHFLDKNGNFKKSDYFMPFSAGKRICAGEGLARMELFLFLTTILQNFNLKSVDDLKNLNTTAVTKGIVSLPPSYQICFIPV

For CCCCCCC(C)(C)c1cc(O)c(C(=O)Nc2ccccc2)c(O)c1 [Compound 5B, 2,6-dihydroxy-4-(2-methyloctan-2-yl)-N-phenylbenzamide], the IC50 (PANC13) was less than 500 nM, the IC50 (Kasumi −1 (leukemia)) was less than 500 nM and the IC50 (U251 (glioblastoma)) was less than 500 nM. The “inhibition of Id-1 expression” value (Id-1) was “significant potency”, the “weight loss (metric of drug toxicity)” value (PANC-1 tumors; PANC-1 tumor mice, Compound-5B 10 mg/kg i.p. daily, gemcitabine 50 mg/kg i.p. three times a week) was “no significant weight loss” and the “growth of PANC-1 tumors” value (PANC-1 tumors; athymic nu/nu mice, 10 mg/kg i.p. once daily) was “reduced the growth of PANC-1 tumors as effectively as gemcitabine”. For the same compound, the “inhibition of important CYP450 isoforms” value (CYP450 isoforms) was “does not inhibit”, the “inhibition of CYP2C8” value (CYP2C8) was “some inhibition” and the “inhibition of CYP2C9” value (CYP2C9) was “some inhibition”. For the same compound, the clearance (IV pharmacokinetics) was “low”, the exposure (IV pharmacokinetics) was “good” and the half-life (IV pharmacokinetics) was “acceptable”. The IC50 [1] was 640 to 750 nM, the IC50 [2] was 640 to 750 nM and the IC50 [3] was 640 to 750 nM.

From patent US12612358B2, “Resorcinol-based compounds and uses thereof” (priority 2020, dated 2026)
